Each compound was assayed against T1, NLRP3 inflammasome (Homo sapiens, UniProt Q96P20) (assay: ASC-SPECK formation in THP-1 cells after gramicidin stimulation (NLRP3 inflammasome activation)). Conditions: PMA-treated human monocytic THP-1 cells; compound 1 h before 12.5 μg/ml gramicidin, 3-hour treatment; ASC SPECK imaging; read-out: EC50 values (nM) for Examples that inhibit NLRP3 inflammasome activation.
T1 construct: host or cells: THP-1 human monocytic cells, treated with PMA and stimulated with gramicidin
Type: cell-based
Description: The ability of compounds to inhibit NLRP3 inflammasome activation was determined in vitro by monitoring formation of the ASC-SPECK in human monocytic THP-1 cells after stimulation. THP-1 cells (ATCC catalog #TIB-202) were maintained in complete growth media containing Roswell Park Memorial Institute RPMI (ATCC catalog #30-2001), 10% heat inactivated fetal bovine serum, 1× penicillin/streptomycin and 0.05 mM 2-mercaptoethanol. At the start of the assay, undifferentiated THP-1 cells were plated at a density of 20,000 cells per well in a 384-well plate (Poly-D-lysine coated Cell Carrier Ultra microplate, Perkin Elmer catalog #6057500) in complete growth media supplemented with 10 ng/ml phorbol 12-myristate 13-acetate (PMA; Sigma catalog #P8139), and then incubated overnight. The next day, media was replaced with assay media [RPMI (Gibco catalog #11875-093), 0.01% bovine serum albumin (BSA)]. Compounds were serially diluted in DMSO and then added to wells one hour prior to the addition of 12.5 μg/ml Gramicidin (Enzo Lifescience, catalog #ALX-350-233-M005). All incubations were carried out at 37° C. (5% CO2/95% air). Following a 3-hour treatment with gramicidin, cells are fixed with 4% paraformaldehyde and stored at 4° C. until immunofluorescence staining.
Immunofluorescence staining: Anti-ASC antibody (MBL catalog #D086-3) was desalted and labeled with Alexa 488 antibody labeling kit (Thermo catalog #A20181) prior to use as described below. After fixation, the following steps were carried out at room temperature. Cells were first permeabilized with 0.3% Triton X-100 in phosphate-buffered saline (PBS) for 15 minutes and then incubated in blocking buffer containing 5% goat serum, 0.3% tween-20 and 0.03% sodium azide in PBS for 1 hour. Cells were stained with a mixture of ASC-Alexa 488 antibody (diluted 1:200 in blocking buffer) and nuclear stain DRAQ5 (1:5000 in blocking buffer, Thermo catalog #62251) in blocking buffer for 1 hour. Following a wash with 0.3% Tween-20 in PBS, plates were imaged with an Opera Phenix High Content Screening System. The number of DRAQ5 positive cells containing ASC SPECKS were quantified in each well.
Data analysis: EC50 values were calculated by standard curve-fitting analysis using an internally developed program in TIBCO Spotfire software.

T1 sequence (Q96P20 whole entry): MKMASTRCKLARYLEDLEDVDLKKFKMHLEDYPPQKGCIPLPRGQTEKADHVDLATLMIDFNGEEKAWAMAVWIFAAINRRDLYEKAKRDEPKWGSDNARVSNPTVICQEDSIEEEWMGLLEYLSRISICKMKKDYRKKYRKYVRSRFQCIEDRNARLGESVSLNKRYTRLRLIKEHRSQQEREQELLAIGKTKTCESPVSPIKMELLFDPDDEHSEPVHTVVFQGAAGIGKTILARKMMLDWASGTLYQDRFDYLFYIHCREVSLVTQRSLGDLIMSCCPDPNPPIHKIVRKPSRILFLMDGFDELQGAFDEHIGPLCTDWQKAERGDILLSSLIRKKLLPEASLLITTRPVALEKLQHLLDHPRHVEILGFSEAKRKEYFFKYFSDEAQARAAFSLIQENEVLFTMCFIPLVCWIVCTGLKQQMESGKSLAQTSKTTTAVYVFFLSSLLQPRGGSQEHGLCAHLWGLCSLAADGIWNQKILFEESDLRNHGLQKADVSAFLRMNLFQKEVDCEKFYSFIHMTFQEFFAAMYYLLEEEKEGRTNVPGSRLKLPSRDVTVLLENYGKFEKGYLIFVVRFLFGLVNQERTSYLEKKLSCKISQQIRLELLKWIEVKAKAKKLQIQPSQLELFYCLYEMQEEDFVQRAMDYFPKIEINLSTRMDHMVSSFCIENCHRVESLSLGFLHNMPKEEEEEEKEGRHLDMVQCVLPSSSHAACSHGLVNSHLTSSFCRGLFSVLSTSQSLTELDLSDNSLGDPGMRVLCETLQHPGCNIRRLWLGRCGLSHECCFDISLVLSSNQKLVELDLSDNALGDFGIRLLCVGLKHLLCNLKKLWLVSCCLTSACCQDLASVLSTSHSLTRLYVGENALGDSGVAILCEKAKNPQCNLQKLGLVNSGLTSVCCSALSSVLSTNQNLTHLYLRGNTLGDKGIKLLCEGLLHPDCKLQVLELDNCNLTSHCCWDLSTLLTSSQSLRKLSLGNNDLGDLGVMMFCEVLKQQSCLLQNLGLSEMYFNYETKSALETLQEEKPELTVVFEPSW

In order of rising EC50:
1. CCN1[C@H]2CC[C@@H]1[C@H](n1cnc3c(C)c(-c4ccc(C(F)(F)F)cc4O)nnc31)CC2 (single isomer, unassigned) [Example 30]  9 nM
2. CCN1CCC[C@@H](n2cnc3c(C)c(-c4ccc(C(F)(F)F)cc4O)nnc32)C1 [Example 7, (R)-2-(7-(1-ethylpiperidin-3-yl)-4-methyl-7H-imidazo[4,5-c]pyridazin-3-yl)-5-(trifluoromethyl)phenol]  13 nM
3. CCN1CCC[C@@H](n2ccc3cc(-c4c(C)cc(C(F)(F)F)cc4O)nnc32)C1 [Example 1, (R)-2-(7-(1-ethylpiperidin-3-yl)-7H-pyrrolo[2,3-c]pyridazin-3-yl)-3-methyl-5-(trifluoromethyl)phenol]  19 nM
4. Cc1c(-c2ccc(C(F)(F)F)cc2O)nnc2c1ncn2[C@@H]1CCCN(C(C)C)C1 [Example 22, (R)-2-(7-(1-isopropylpiperidin-3-yl)-4-methyl-7H-imidazo[4,5-c]pyridazin-3-yl)-5-(trifluoromethyl)phenol]  20 nM
5. CCN1CCC[C@@H](n2cnc3cc(-c4c(C)cc(C(F)(F)F)cc4O)nnc32)C1 [Example 3, (R)-2-(7-(1-ethylpiperidin-3-yl)-7H-imidazo[4,5-c]pyridazin-3-yl)-3-methyl-5-(trifluoromethyl)phenol]  21 nM
6. Cc1c(-c2ccc3c(c2O)CCC3)nnc2c1ncn2[C@@H]1CCCN(C)C1 [Example 16, (R)-5-(4-methyl-7-(1-methylpiperidin-3-yl)-7H-imidazo[4,5-c]pyridazin-3-yl)-2,3-dihydro-1H-inden-4-ol]  23 nM
7. Cc1c(-c2ccc(C(F)(F)F)cc2O)nnc2c1ncn2[C@@H]1CCCN(C)C1 [Example 10, (R)-2-(4-methyl-7-(1-methylpiperidin-3-yl)-7H-imidazo[4,5-c]pyridazin-3-yl)-5-(trifluoromethyl)phenol]  25 nM
8. Cc1c(-c2ccc(C(F)(F)F)cc2O)nnc2c1ncn2[C@@H]1CC[C@@H]2CC[C@H]1N2C (single isomer, unassigned) [Example 29]  26 nM
9. Cc1c(-c2ccc(Cl)cc2O)nnc2c1ncn2[C@@H]1CCCN(C)C1 [Example 17, (R)-5-chloro-2-(4-methyl-7-(1-methylpiperidin-3-yl)-7H-imidazo[4,5-c]pyridazin-3-yl)phenol]  28 nM
10. CCN1CCC[C@@H](n2cnc3c(C)c(-c4ccc(Cl)cc4O)nnc32)C1 [Example 18, (R)-5-chloro-2-(7-(1-ethylpiperidin-3-yl)-4-methyl-7H-imidazo[4,5-c]pyridazin-3-yl)phenol]  29 nM
11. Cc1c(-c2ccc(C(F)(F)F)cc2O)nnc2c1ncn2C12CCCC(N)(C1)C2 [Example 32, 2-(7-(5-aminobicyclo[3.1.1]heptan-1-yl)-4-methyl-7H-imidazo[4,5-c]pyridazin-3-yl)-5-(trifluoromethyl)phenol]  47 nM
12. Cc1c(-c2ccc3c(c2O)CCC3)nnc2c1ncn2[C@@H]1CCCNC1 [Example 19, (R)-5-(4-methyl-7-(piperidin-3-yl)-7H-imidazo[4,5-c]pyridazin-3-yl)-2,3-dihydro-1H-inden-4-ol]  53 nM
13. Cc1c(-c2ccc3sccc3c2O)nnc2c1ncn2[C@@H]1CCCN(C)C1 [Example 15, (R)-5-(4-methyl-7-(1-methylpiperidin-3-yl)-7H-imidazo[4,5-c]pyridazin-3-yl)benzo[b]thiophen-4-ol]  61 nM
14. Cc1c(-c2c(O)cc(Cl)cc2F)nnc2c1ncn2[C@@H]1CCCN(C)C1 [Example 26, 5-chloro-3-fluoro-2-(4-methyl-7-((R)-1-methylpiperidin-3-yl)-7H-imidazo-[4,5-c]pyridazin-3-yl)phenol]  81 nM
15. Cc1ccc(-c2nnc3c(ncn3[C@@H]3CCCN(C)C3)c2C)c(O)c1F [Example 20, (R)-2-fluoro-3-methyl-6-(4-methyl-7-(1-methylpiperidin-3-yl)-7H-imidazo[4,5-c]pyridazin-3-yl)phenol]  84 nM
16. Cc1c(-c2ccc(C(F)(F)F)cc2O)nnc2c1ncn2[C@@H]1CCCN2CCC[C@@H]12 (single isomer, unassigned) [Example 34]  87 nM
17. Cc1cc(C(F)(F)F)cc(O)c1-c1cc2ncn(C3CCCN(C)C3)c2nn1 (racemic) [Example 4, (R and S)-3-methyl-2-(7-(1-methylpiperidin-3-yl)-7H-imidazo[4,5-c]pyridazin-3-yl)-5-(trifluoromethyl)phenol]  91 nM
18. CCN1CC[C@@H](O)[C@@H](n2cnc3c(C)c(-c4ccc(C(F)(F)F)cc4O)nnc32)C1 [Example 12, (3S,4R)-1-ethyl-3-(3-(2-hydroxy-4-(trifluoro-methyl)phenyl)-4-methyl-7H-imidazo[4,5-c]pyridazin-7-yl)piperidin-4-ol]  103 nM
19. Cc1c(-c2ccc(C(F)(F)F)cc2O)nnc2c1ncn2[C@@H]1CCCN(C2CCC2)C1 [Example 23, (R)-2-(7-(1-cyclobutylpiperidin-3-yl)-4-methyl-7H-imidazo[4,5-c]pyridazin-3-yl)-5-(trifluoromethyl)phenol]  112 nM
20. Cc1c(-c2ccc(C(F)(F)F)cc2O)nnc2c1ncn2[C@@H]1CC[C@@H]2CC[C@H]1N2 (single isomer, unassigned) [Example 24]  130 nM
21. Cc1c(-c2ccc(C(F)(F)F)cc2O)nnc2c1ncn2[C@@H]1CCCNC1 [Example 5, (R)-2-(4-methyl-7-(piperidin-3-yl)-7H-imidazo[4,5-c]pyridazin-3-yl)-5-(trifluoromethyl)phenol]  143 nM
22. Cc1c(-c2ccc(C(F)(F)F)cc2O)nnc2c1ncn2[C@H]1CN(C)CC[C@H]1O [Example 11, (3S,4R)-3-(3-(2-hydroxy-4-(trifluoro-methyl)phenyl)-4-methyl-7H-imidazo[4,5-c]pyridazin-7-yl)-1-methylpiperidin-4-ol]  147 nM
23. Cc1c(-c2ccc(Cl)cc2O)nnc2c1ncn2[C@@H]1CCCNC1 [Example 13, (R)-5-chloro-2-(4-methyl-7-(piperidin-3-yl)-7H-imidazo[4,5-c]pyridazin-3-yl)phenol]  320 nM
24. Cc1c(-c2ccc(C(F)(F)F)cc2O)nnc2c1ncn2[C@H]1CNCC[C@H]1O [Example 6, (3S,4R)-3-(3-(2-hydroxy-4-(trifluoro-methyl)phenyl)-4-methyl-7H-imidazo[4,5-c]pyridazin-7-yl)piperidin-4-ol]  550 nM
25. Cc1c(-c2ccc(C(F)(F)F)cc2O)nnc2c1nc(C)n2[C@@H]1CCCN(C)C1 [Example 14, (R)-2-(4,6-dimethyl-7-(1-methylpiperidin-3-yl)-7H-imidazo[4,5-c]pyridazin-3-yl)-5-(trifluoromethyl)phenol]  567 nM
26. CCN1CCC[C@@H](n2cnc3c(C)c(-c4ccc(C(F)(F)F)cc4OC(F)F)nnc32)C1 [Example 9, (R)-3-(2-(difluoromethoxy)-4-(trifluoromethyl)phenyl)-7-(1-ethylpiperidin-3-yl)-4-methyl-7H-imidazo[4,5-c]pyridazine]  699 nM
27. CCN1[C@@H]2CC[C@H]1[C@@H](n1cnc3c(C)c(-c4ccc(C(F)(F)F)cc4O)nnc31)CC2 (single isomer, unassigned) [Example 31]  889 nM
28. Cc1c(-c2ccc3c(c2O)CC(F)(F)C3)nnc2c1ncn2[C@@H]1CCCN(C)C1 [Example 21, (R)-2,2-difluoro-5-(4-methyl-7-(1-methylpiperidin-3-yl)-7H-imidazo[4,5-c]pyridazin-3-yl)-2,3-dihydro-1H-inden-4-ol]  996 nM
29. CN1CCCC(n2cnc3cc(-c4ccc(C(F)(F)F)cc4O)nnc32)C1 (racemic) [Example 8, (R and S)-2-(7-(1-methylpiperidin-3-yl)-7H-imidazo[4,5-c]pyridazin-3-yl)-5-(trifluoromethyl)phenol]  1000 nM
30. Cc1c(-c2ccc(C(F)(F)F)cc2O)nnc2c1ncn2[C@H]1CC[C@H]2CC[C@@H]1N2 (single isomer, unassigned) [Example 25]  1010 nM
31. Cc1c(-c2ccc(C(F)(F)F)cc2O)nnc2c1ncn2[C@H]1CCCN2CCC[C@H]12 (single isomer, unassigned) [Example 33]  1360 nM
32. Cc1c(-c2ccc(C(F)(F)F)cc2O)nnc2c1ncn2[C@H]1CC[C@H]2CC[C@@H]1N2C (single isomer, unassigned) [Example 28]  1410 nM
33. Cc1c(-c2ccc(C3CC3)c(F)c2O)nnc2c1ncn2[C@@H]1CCCN(C)C1 [Example 27, (R)-3-cyclopropyl-2-fluoro-6-(4-methyl-7-(1-methylpiperidin-3-yl)-7H-imidazo-[4,5-c]pyridazin-3-yl)phenol]  1530 nM
